Experimental data as given in ChEMBL document CHEMBL4725454, “Degradation of LRRK2 in the Treatment of Parkinson's Disease” (ACS Med Chem Lett, 2020).

Tests used:
[1] = molecular target: Protein cereblon/Leucine-rich repeat serine/threonine-protein kinase 2 (Mus musculus, UniProt Q5S006+Q8C7D2); assay: Protac activity at CRBN/LRRK2 in mouse MEF cells assessed as induction of LRRK2 degradation by measuring reduction in LRRK2 phosphorylation at S935 residue by Invitrogen Adapta assay; type: cell-based
[2] = molecular target: Protein cereblon/Leucine-rich repeat serine/threonine-protein kinase 2 (Mus musculus, UniProt Q5S006+Q8C7D2, G2019S); assay: Protac activity at CRBN/LRRK2 G2019S homozygous knock-in mutant in mouse MEF cells assessed as induction of LRRK2 degradation by measuring reduction in LRRK2 phosphorylation at S935 residue by Invitrogen Adapta assay; type: cell-based

Structure (SMILES)	IC50 [1]	IC50 [2]
CC1(Oc2ccc3[nH]nc(-c4cc(N5CCN(C(=O)CCOCCOCCOCCOCCNc6cccc7c6C(=O)N(C6CCC(=O)NC6=O)C7=O)CC5)ncn4)c3c2)CC1 (stereo unspecified)	1.46 nM	0.98 nM
CNc1nc(Nc2ccc(C(=O)N3CCN(C(=O)CCOCCOCCOCCOCCNc4cccc5c4C(=O)N(C4CCC(=O)NC4=O)C5=O)CC3)cc2OC)ncc1C(F)(F)F (stereo unspecified)	4 nM	2 nM
CC1(Oc2ccc3[nH]nc(-c4cc(N5CCN(C(=O)CCOCCOCCOCCOCCNc6cccc7c6C(=O)N(C6CCC(=O)NC6=O)C7)CC5)ncn4)c3c2)CC1 (stereo unspecified)	3.14 nM	3.16 nM
CC1(Oc2ccc3[nH]nc(-c4cc(N5CCN(C(=O)CCOCCOCCNc6cccc7c6C(=O)N(C6CCC(=O)NC6=O)C7)CC5)ncn4)c3c2)CC1 (stereo unspecified)	2.58 nM	2.24 nM
CNc1nc(Nc2ccc(C(=O)N3CCN(C(=O)CCCCCCCCOc4cccc5c4C(=O)N(C4CCC(=O)NC4=O)C5=O)CC3)cc2OC)ncc1C(F)(F)F (stereo unspecified)	2 nM	1 nM
CC1(Oc2ccc3[nH]nc(-c4cc(N5CCN(C(=O)CCOCCOCCNc6cccc7c6C(=O)N(C6CCC(=O)NC6=O)C7=O)CC5)ncn4)c3c2)CC1 (stereo unspecified)	1.24 nM	1.13 nM
CC1(Oc2ccc3[nH]nc(-c4cc(N5CCN(C(=O)CCOCCNc6cccc7c6C(=O)N(C6CCC(=O)NC6=O)C7=O)CC5)ncn4)c3c2)CC1 (stereo unspecified)	1.59 nM	1.08 nM
CC1(Oc2ccc3[nH]nc(-c4cc(N5CCN(C(=O)CCOCCNc6cccc7c6C(=O)N(C6CCC(=O)NC6=O)C7)CC5)ncn4)c3c2)CC1 (stereo unspecified)	2.5 nM	1.47 nM
